Experimental data from paper PMC11881918, “Kir7.1 is the physiological target for hormones and steroids that regulate uteroplacental function” (Science Advances, 2025).

Columns and labels:
Type in all cases: cell-based
Kir7.1 (hKir7.1) [1] = molecular target: T1, Kir7.1 (hKir7.1) (Homo sapiens, UniProt O60928); assay: whole-cell patch clamp, inhibition of P4-activated current; design: gene KCNJ13; recombinant hKir7.1 in HEK293 cells
T1 sequence (O60928 1-360): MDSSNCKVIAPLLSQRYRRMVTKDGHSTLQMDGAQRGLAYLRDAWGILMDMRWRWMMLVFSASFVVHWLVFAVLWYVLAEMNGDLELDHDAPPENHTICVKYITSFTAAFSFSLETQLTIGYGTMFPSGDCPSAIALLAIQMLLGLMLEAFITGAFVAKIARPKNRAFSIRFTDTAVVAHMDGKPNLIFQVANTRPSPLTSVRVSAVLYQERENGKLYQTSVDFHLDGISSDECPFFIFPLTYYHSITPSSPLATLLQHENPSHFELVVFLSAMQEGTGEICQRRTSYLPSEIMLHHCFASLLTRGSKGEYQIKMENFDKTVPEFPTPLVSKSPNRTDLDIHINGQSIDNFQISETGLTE

Kir7.1 (hKir7.1) [2] = molecular target: T1, Kir7.1 (hKir7.1); assay: whole-cell patch clamp, dose response of current potentiation at -80 mV; design: gene KCNJ13; recombinant hKir7.1 (pIRES2-eGFP-hKir7.1) in HEK293 cells and HUtSMCs
murine Kir7.1 = molecular target: T2, murine Kir7.1 (Mus musculus, UniProt P86046); assay: whole-cell patch clamp, dose response of current potentiation
T2 construct: gene Kcnj13; recombinant murine Kir7.1 in HEK293 cells
T2 sequence (P86046 1-360): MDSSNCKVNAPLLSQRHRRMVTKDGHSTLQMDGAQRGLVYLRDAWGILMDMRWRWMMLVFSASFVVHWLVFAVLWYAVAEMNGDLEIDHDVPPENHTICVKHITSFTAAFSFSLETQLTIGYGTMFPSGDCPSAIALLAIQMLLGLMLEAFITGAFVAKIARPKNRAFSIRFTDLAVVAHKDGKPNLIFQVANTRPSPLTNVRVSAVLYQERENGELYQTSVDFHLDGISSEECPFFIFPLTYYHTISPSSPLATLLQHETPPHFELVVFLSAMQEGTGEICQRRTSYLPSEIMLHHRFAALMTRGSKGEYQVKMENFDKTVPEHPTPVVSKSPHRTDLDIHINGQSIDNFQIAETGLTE

Structure (SMILES)	IC50 (Kir7.1 (hKir7.1) [1])	EC50 (Kir7.1 (hKir7.1) [2])	EC50 (murine Kir7.1)
C[C@]12CC[C@@H]3c4ccc(O)cc4CC[C@H]3[C@@H]1CC[C@@H]2O [E2, 17β-estradiol]	8.6 µM	–	–
CC(=O)[C@H]1CC[C@H]2[C@@H]3CCC4=CC(=O)CC[C@]4(C)[C@H]3CC[C@]12C [P4, progesterone]	–	~ 9.4 and 11.5 μM	~ 9.4 and 11.5 μM
